Experimental data: patent US5159114A, “ACAT inhibitory benzanilides” (Rhone-Poulenc Sante, priority 1989, dated 1992)

Experiments:
[1] = system: acyl coenzyme-A:cholesterol-O-acyl transferase (ACAT;EC 2.3.1.26); assay: In vitro inhibition of ACAT in liver microsomes from cholesterol-fed rats, incubated with radiolabelled oleoyl-CoA; format: biochemical; conditions: 1 μg/ml, rat liver microsomes
plasma cholesterol = assay: In vivo inhibition of increases in plasma cholesterol concentrations in rats fed a cholesterol-supplemented diet; set-up: species or system rat; conditions: diet supplemented with cholesterol/cholic acid and 0.03% w/w test compound, after 3 days, relative to control animals fed cholesterol diet without drug

Row | SMILES | In-vitro % Inhibition (degree of ACAT inhibition) [1] | In-vivo % Inhibition (of increases in plasma cholesterol concentrations) (plasma cholesterol)
1 | CCCCCCCCCOc1ccc(C(=O)Nc2cc(C(=O)NCCSC)ccc2OC)cc1 [F, N-[2-methoxy-5-(2-methylthioethylaminocarbonyl)]phenyl-4-nonyloxybenzamide] | 87% | 
2 | CCCCCCCCCCOc1ccc(C(=O)Nc2cc(C(=O)NCCSC)ccc2SC)cc1 [C, N-[2-methylthio-5-(2-methylthioethylaminocarbonyl)]phenyl-4-decyloxybenzamide] | 98% | 91%
3 | CCCCCCCCCCOc1ccc(C(=O)Nc2cc(C(=O)NCCSC)ccc2OC)cc1 [E, N-[2-methoxy-5-(2-methylthioethylaminocarbonyl)]phenyl-4-decyloxybenzamide] | 83% | 
4 | CCCCCCCCCCOc1ccc(C(=O)Nc2cc(C(=O)NCCCC)ccc2SC)cc1 [B, N-(2-methylthio-5-butylaminocarbonyl)phenyl-4-decyloxybenzamide] |  | 92%
5 | CCCCCCCCCCSc1ccc(C(=O)Nc2cc(C(=O)NCCSC)ccc2SC)cc1 [D, N-[2-methylthio-5-(2-methylthioethylaminocarbonyl)]phenyl-4-(decylthio)benzamide] | 94% | 100%

More lines, main results first:

Row | In-vitro % Inhibition (degree of ACAT inhibition) [1] | SMILES | In-vivo % Inhibition (of increases in plasma cholesterol concentrations) (plasma cholesterol)
6 | 91% | CCCCCCCCCCSc1ccc(C(=O)Nc2cc(C(=O)NCCCC)ccc2OC)cc1 [G, N-(2-methoxy-5-butylaminocarbonyl)phenyl-4-(decylthio)benzamide] | 
7 | 82% | CCCCCCCCCCOc1ccc(C(=O)Nc2cc(C(=O)NCCOC)ccc2SC)cc1 [Compound A, N-[2-methylthio-5-(2-methoxyethylaminocarbonyl)]phenyl-4-decyloxybenzamide] | 100%
